Reference: US11478466B2, “Small molecule promoting osteoblast differentiation” (Cornell University, priority 2019, dated 2022)
Where two headings read alike, the source gives them in different places.

Key:
[1] = system: alkaline phosphatase (ALP); conditions: for Fluo. Z Score: SAR of library and proprietary analogs, AttoPhos assay; for RFU Score Threshold ≥ 800 / Fluorescence Z Score Threshold ≥ 10 / NPA Score Threshold ≥ 5.0 (normalized percent activation): primary screen, C2C12, 4 days; for RFU Score Threshold ≥ 800 / Fluorescence Z Score Threshold ≥ 10 / NPA Score Threshold ≥ 5.0 (normalized percent activation) / RFU Score (10 μM): 10 μM; for RFU Score Threshold ≥ 800: Ex 450/Em 580 nm, rank in brackets not taken; for Fluorescence Z Score Threshold ≥ 10: Z score on DMSO control wells; for NPA Score Threshold ≥ 5.0 (normalized percent activation): normalized against rhBMP4 positive and DMSO negative controls; for RFU Score (10 μM): 154-analog library, C2C12, duplicate
[2] = system: alkaline phosphatase (ALP); experiment: cells; conditions: Mus musculus; for EC50: C2C12; for activation at 10 µM: C2C12, 96 h
[3] = read-out: NPA Score Threshold ≥ 5.0 (normalized percent activation)

Compound	RFU Score Threshold ≥ 800 [1]	Fluorescence Z Score Threshold ≥ 10 [1]	NPA Score Threshold ≥ 5.0 (normalized percent activation) [1]	also measured
O=C(Nc1ccc(O)cc1)c1cc2cc(Cl)ccc2[nH]c1=O [BT351]				Fluo. Z Score ([1]; C2C12): 1.48 ± 1.26; EC50 [2]: 20.9 µM
CC1(C)OB(c2c(C(=O)O)c(=O)[nH]c3ccc(Cl)cc23)OC1(C)C [BT353]				Fluo. Z Score ([1]; C2C12): 3.15 ± 0.34; EC50 [2]: 5.31 µM
c1ccc2c(c1)nc(NC1CCCC1)c1nncn12 [RU-0007138]	Below Threshold	17.92 (10)	Below Threshold	
COC(=O)c1ccc(NC(=O)c2c3c(nn2C2CCS(=O)(=O)C2)CCC3)cc1 (stereo not shown) [RU-0159762]	855 (22)	21.33 (6)	Below Threshold	
CC(C)N1CCC(SCc2ccc(F)cc2C#N)C1=O (stereo not shown) [RU-0201425]	Below Threshold	Below Threshold		activation at 10 µM [2, 3]: 5.69%
CC1(C)C(=O)NCCN1C(=O)/C=C(/c1ccc(Cl)cc1)C(F)(F)F [RU-0213635]	1170 (5)	15.00 (14)	Below Threshold	
Cc1cc(C(=O)NC2(C#N)CC2)ccc1NC(=O)CC(C)C [RU-0213672]	1040 (9)	12.15 (20)	Below Threshold	
O=C(NC1CCN(c2ccc(F)cc2)CC1)N(CC1CCOC1)C1CC1 (stereo not shown) [RU-0219256]	Below Threshold	Below Threshold		activation at 10 µM [2, 3]: 5.69%
CCCN(C)CC1CCN(C(C)C(=O)Nc2ccc(C(F)(F)F)cc2)C1 (stereo not shown) [RU-0219355]	819 (28)	Below Threshold		activation at 10 µM [2, 3]: 6.14%
Cc1cc(C)c2[nH]c(=O)c(-c3c(-c4ccccc4)ncn3CCCO)cc2c1 [RU-0220396]				Fluo. Z Score ([1]; C2C12): −0.3 ± 0.20; EC50 [2]: 2.63 µM
CCC(C)(C)C(=O)N1CCC(CO)(CCOc2ccccc2)CC1 [RU-0220454]	811 (31)	Below Threshold	Below Threshold	
CO[C@H]1CN(Cc2cccc(Cl)c2Cl)CC[C@H]1N [RU-0221236]	Below Threshold	Below Threshold		activation at 10 µM [2, 3]: 5.13%
Cc1ccc(CN2CCN(Cc3ccccc3CO)CC2)n1-c1cccnc1 [RU-0221380]	922 (13)	16.89 (11)	Below Threshold	
O=C(NC1CC1)C1CCCN(C2CCN(c3ccc(C(F)(F)F)cn3)CC2)C1 (stereo not shown) [RU-0221613]	Below Threshold	Below Threshold		activation at 10 µM [2, 3]: 5%
c1ccc(-c2nc[nH]c2-c2ccccc2Cn2cccn2)cc1 [RU-0222072]				RFU Score (10 μM) [1]: 425; activation at 10 µM [2]: 5.05%
CC(C)c1nnc(CN2C[C@H]3CC=CC[C@H]3C2)o1 [RU-0223925]	1120 (6)	18.94 (8)		activation at 10 µM [2, 3]: 11.2%
CN1CCC2(CC1)CN(C(=O)COCC1CCCO1)CCCN2C (stereo not shown) [RU-0224115]	900 (17)	Below Threshold	Below Threshold	
Cc1c(-c2ccccc2F)[nH]c2ccc(CNS(=O)(=O)N3CCCC3)cc12 [RU-0225107]	805 (34)	Below Threshold		activation at 10 µM [2, 3]: 5.07%
O=C(c1ccc2c(c1)OCO2)C1CCCN(C(=O)c2cnn(Cc3ccccc3)c2)C1 (stereo not shown) [RU-0227215]	1310 (4)	27.39 (4)	Below Threshold	
OCc1ccccc1-c1ccc(NC2CCCC2)nn1 [RU-0227303]	Below Threshold	13.68 (18)	Below Threshold	
Cc1cc(C)c2[nH]c(=O)c(CN3CCC4(CCCNC4)C3)cc2c1 (stereo not shown) [RU-0227342]				RFU Score (10 μM) [1]: 591; activation at 10 µM [2]: 11%
Cc1cc(C)c2[nH]c(=O)c(CN3CCC4(CCOCC4)CC3)cc2c1 [RU-0227345]				RFU Score (10 μM) [1]: 384; activation at 10 µM [2]: 3.6%
CC(=O)NCCC1CCCCN1Cc1cc2cc(C)cc(C)c2[nH]c1=O (stereo not shown) [RU-0227648]				RFU Score (10 μM) [1]: 494; activation at 10 µM [2]: 7.48%
O=C(c1[nH]cnc1-c1ccccc1)N1CC[C@H](CO)[C@H](O)C1 [RU-0227868]				RFU Score (10 μM) [1]: 505; activation at 10 µM [2]: 7.88%

Compound	RFU Score Threshold ≥ 800 [1]	Fluorescence Z Score Threshold ≥ 10 [1]	NPA Score Threshold ≥ 5.0 (normalized percent activation) [1]	also measured
COc1cccc(C2CCN(c3ncnc4c3CCNC4)C2)c1OC (stereo not shown) [RU-0227959]	815 (30)	Below Threshold	Below Threshold	
Cc1cc(C)c2[nH]c(=O)c(CN3CCOC(CN)C3)cc2c1 (stereo not shown) [RU-0228809]				RFU Score (10 μM) [1]: 341; activation at 10 µM [2]: 1.81%
CC1CCN(C(=O)COc2ccccc2-c2[nH]cnc2-c2ccccc2)CC1 [RU-0228904]				RFU Score (10 μM) [1]: 590; activation at 10 µM [2]: 10.9%
Cc1ccccc1N1CCN(C(=O)c2ccc(C#CC(C)(C)O)o2)C(C)C1 (stereo not shown) [RU-0228950]	921 (14)	15.58 (13)	Below Threshold	
OCc1ccc(CN2CCCC(COc3ccccc3F)C2)o1 (stereo not shown) [RU-0229103]	1980 (2)	46.85 (2)		activation at 10 µM [2, 3]: 6.82%
COc1ccc(-n2c(Cc3cccnc3)n[nH]c2=O)c(C)c1 [RU-0230205]	1060 (8)	19.99 (7)	Below Threshold	
CN(C)CCC1CN(C(=O)c2[nH]cnc2-c2ccccc2)CCO1 (stereo not shown) [RU-0231240]				RFU Score (10 μM) [1]: 596; activation at 10 µM [2]: 11.1%
COc1ccc(-c2[nH]cnc2-c2ccccc2)cc1CN(C)C [RU-0231652]				RFU Score (10 μM) [1]: 299; activation at 10 µM [2]: 0.62%
Cc1ccccc1OCCCN(C)c1nc(-c2cccnc2)nc2c1CNC2 [RU-0231961]	Below Threshold	Below Threshold		activation at 10 µM [2, 3]: 5.5%
CCCc1ccc(-c2ccc(C(=O)N3C[C@@H](N)C[C@H]3C(=O)NC)cc2)cc1 [RU-0232318]	804 (35)	Below Threshold	Below Threshold	
Cc1nc[nH]c1CN1CCOc2c(O)cc(-c3cccc(Cl)c3)cc2C1 [RU-0236543]	821 (27)	Below Threshold	Below Threshold	
O[C@@H]1CNCC[C@H]1CNCc1ccccc1-c1ccccc1 [RU-0236855]	810 (32)	Below Threshold	Below Threshold	
CSc1ncc(C(=O)NCc2cc(C)cc3c(C)c(C)[nH]c23)cn1 [RU-0239453]	809 (33)	Below Threshold	Below Threshold	
CCC(OC)C(=O)NCc1ccc2[nH]c(-c3ccccc3F)c(C)c2c1 (stereo not shown) [RU-0244068]	836 (26)	Below Threshold	Below Threshold	
Cc1ccc(OCCN(C)Cc2ccncc2)c(C)c1 [RU-0244443]	818 (29)	Below Threshold	Below Threshold	
O=C(N[C@H]1CN[C@H](C(=O)NCCCn2ccnc2)C1)c1cccc(Cl)c1 [RU-0245007]	993 (12)	14.31 (17)	Below Threshold	
c1ccc(CC2CCN(Cc3cc4n(n3)CCCNC4)C2)cc1 (stereo not shown) [RU-0246723]	873 (20)	10.91 (23)	Below Threshold	
Cc1nc(CCN)cc(N2CCCC2c2nonc2C)n1 (stereo not shown) [RU-0250475]	879 (19)	Below Threshold	Below Threshold	
CN(Cc1cccc2ncccc12)CC1CCOC1 (stereo not shown) [RU-0252111]	1010 (10)	16.48 (12)	Below Threshold	
CCCc1nc(C)c(CNC(=O)C2CCOC2)s1 (stereo not shown) [RU-0254439]	Below Threshold	14.37 (16)	Below Threshold	
CCOC(=O)c1n[nH]cc1[C@@H]1C[C@H](NC(C)=O)C[C@H](CC(C)C)O1 [RU-0257787]	Below Threshold	12.09 (21)	Below Threshold	
Cc1cccc(-c2ncc(CN3CCCC(Cn4ccnc4C)C3)cn2)c1 (stereo not shown) [RU-0261573]	857 (21)	10.31 (24)	Below Threshold	
CCNC(=O)N1CCc2c(cnc(C)c2-c2noc(-c3ccc(C)cc3)n2)C1 [RU-0265172]	840 (25)	18.70 (9)	Below Threshold	
N-(3-isoquinolin-5-ylbenzyl)propanamide [RU-0248250]	1000 (11)	24.29 (5)	Below Threshold	EC50 ([1]; read-out: Measured EC50, compounds validated in secondary screen, C2C12): > 40 µM
